According to PMC7490411 (Signal Transduction and Targeted Therapy, 2020):

How the values were obtained:
PHKG2 = assay: KINOMEscan; format: binding; conditions: 1000 nM
FLT3(R834Q) = assay: KINOMEscan; format: binding; conditions: 1000 nM
CSNK1E = assay: KINOMEscan; format: binding; conditions: 1000 nM
DCAMKL1 = assay: KINOMEscan; format: binding; conditions: 1000 nM
[1] = test system: RPS6KA5(Kin.Dom.2-C-terminal); assay: KINOMEscan; format: binding; conditions: 1000 nM
PIK3CA = assay: KINOMEscan; format: binding; conditions: 1000 nM
WNK4 = assay: KINOMEscan; format: binding; conditions: 1000 nM
CAMK2G = assay: KINOMEscan; format: binding; conditions: 1000 nM
MYLK4 = assay: KINOMEscan; format: binding; conditions: 1000 nM
RIOK2 = assay: KINOMEscan; format: binding; conditions: 1000 nM
CDK8 = assay: KINOMEscan; format: binding; conditions: 1000 nM
EGFR(L858R) = assay: KINOMEscan; format: binding; conditions: 1000 nM
[2] = test system: ABL1(H396P)-nonphosphorylated; assay: KINOMEscan; format: binding; conditions: 1000 nM
MERTK = assay: KINOMEscan; format: binding; conditions: 1000 nM
CSNK1A1 = assay: KINOMEscan; format: binding; conditions: 1000 nM
TSSK1B = assay: KINOMEscan; format: binding; conditions: 1000 nM
IKK-alpha = assay: KINOMEscan; format: binding; conditions: 1000 nM
NEK3 = assay: KINOMEscan; format: binding; conditions: 1000 nM
DMPK2 = assay: KINOMEscan; format: binding; conditions: 1000 nM
[3] = test system: RSK1(Kin.Dom.1-N-terminal); assay: KINOMEscan; format: binding; conditions: 1000 nM
SK-OV-3 cells = assay: NK-cell-mediated ADCC, LDH release cytotoxicity assay, Herceptin; format: cell-based, human
Protocol: The cytotoxicity of NK cells was measured using the CyQUANT™ LDH Cytotoxicity Assay Kit (Invitrogen™, #C20300) according to the manufacturer’s instructions. Briefly, enriched NK cells (6 × 10^5 /ml) were cultured with the same volume of Mino cell and SK-OV-3 cell (1-2 × 10^4 /ml) in a 96-well plate for 4 h with Rituximab and Herceptin (10 μg/mL) and CHMFL-BTK-85 or PCI32765 at 37°C in a humidified CO2 incubator prior to removal of the supernatant for lactate dehydrogenase (LDH) release measurements. Calculate % Cytotoxicity by using the following formula: %Cytotoxicity = (Compound-treated LDH activity-Spontaneous LDH activity)/(Maximum LDH activity-Spontaneous LDH activity)*100.

p38-beta = assay: KINOMEscan; format: binding; conditions: 1000 nM
FLT3(D835V) = assay: KINOMEscan; format: binding; conditions: 1000 nM
MYLK2 = assay: KINOMEscan; format: binding; conditions: 1000 nM
YANK2 = assay: KINOMEscan; format: binding; conditions: 1000 nM
PAK1 = assay: KINOMEscan; format: binding; conditions: 1000 nM
[4] = drug enrichment in the tumor; format: in vivo, mouse; conditions: 100 mg/kg
468 kinases/mutants = assay: KINOMEscan kinome-wide selectivity profiling; format: binding; conditions: 1 μM
Text: Here, we report the discovery of a novel covalent BTK inhibitor, CHMFL-BTK-85 (abbreviated as compd. 85) (chemical structure shown in Fig. 1a), which achieves high potency against BTK and selectivity over other protein kinases. […] To further confirm that compd. 85 could covalently bind to wide-type native BTK in cell, we then conducted a target-engagement assay using the biotinylated analog of compd. 85, i.e., CHMFL-BTK-85B (Supplementary Fig. S2), in REC-1 cell which expresses native BTK kinase. […] To further investigate the selectivity of compd. 85 in the kinome, we then tested it among 468 kinases/mutants with KINOMEscan^TM technology.

ERK2 = assay: KINOMEscan; format: binding; conditions: 1000 nM
CASK = assay: KINOMEscan; format: binding; conditions: 1000 nM
MYO3B = assay: KINOMEscan; format: binding; conditions: 1000 nM
MAP3K15 = assay: KINOMEscan; format: binding; conditions: 1000 nM
WEE2 = assay: KINOMEscan; format: binding; conditions: 1000 nM
p38-delta = assay: KINOMEscan; format: binding; conditions: 1000 nM
TXK = target: T1, TXK (Homo sapiens, UniProt P42681); assay: KINOMEscan; format: binding; conditions: 1000 nM
T1 construct: purchased Invitrogen (Carlsbad, CA, USA)
T1 sequence (P42681 whole entry): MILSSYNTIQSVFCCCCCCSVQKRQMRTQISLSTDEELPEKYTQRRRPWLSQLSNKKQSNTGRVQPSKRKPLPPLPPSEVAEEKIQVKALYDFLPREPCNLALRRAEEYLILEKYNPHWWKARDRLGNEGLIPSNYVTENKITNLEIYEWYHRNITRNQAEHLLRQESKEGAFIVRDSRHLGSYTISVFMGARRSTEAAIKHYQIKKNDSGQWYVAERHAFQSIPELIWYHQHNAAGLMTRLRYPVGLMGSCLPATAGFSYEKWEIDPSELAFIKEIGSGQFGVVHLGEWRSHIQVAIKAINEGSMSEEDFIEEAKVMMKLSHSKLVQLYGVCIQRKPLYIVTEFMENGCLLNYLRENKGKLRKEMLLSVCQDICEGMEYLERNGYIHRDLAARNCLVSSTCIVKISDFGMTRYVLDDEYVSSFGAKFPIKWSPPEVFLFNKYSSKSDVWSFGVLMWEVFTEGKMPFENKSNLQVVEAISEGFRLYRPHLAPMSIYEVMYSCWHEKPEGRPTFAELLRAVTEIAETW

AURKC = assay: KINOMEscan; format: binding; conditions: 1000 nM
PIP5K2C = assay: KINOMEscan; format: binding; conditions: 1000 nM
CDK2 = assay: KINOMEscan; format: binding; conditions: 1000 nM
PFCDPK1(P.falciparum) = assay: KINOMEscan; format: binding; conditions: 1000 nM
MARK2 = assay: KINOMEscan; format: binding; conditions: 1000 nM
[5] = test system: EGFR(L747-E749del, A750P); assay: KINOMEscan; format: binding; conditions: 1000 nM
GRK1 = assay: KINOMEscan; format: binding; conditions: 1000 nM
PIKFYVE = assay: KINOMEscan; format: binding; conditions: 1000 nM
[6] = test system: RSK2(Kin.Dom.2-C-terminal); assay: KINOMEscan; format: binding; conditions: 1000 nM
EPHA4 = assay: KINOMEscan; format: binding; conditions: 1000 nM
SLK = assay: KINOMEscan; format: binding; conditions: 1000 nM
PIK3CA(H1047Y) = assay: KINOMEscan; format: binding; conditions: 1000 nM

C=CC(=O)Nc1cc(Nc2cc(-c3cccc(NC(=O)c4cc5c(s4)CCCC5)c3C)cn(C)c2=O)ccc1N1CCN(CC)CC1 [CHMFL-BTK-85]
Percent Control (PHKG2): 100%
Percent Control (FLT3(R834Q)): 100%
Percent Control (CSNK1E): 95%
Percent Control (DCAMKL1): 100%
Percent Control [1]: 66%
Percent Control (PIK3CA): 82%
Percent Control (WNK4): 82%
Percent Control (CAMK2G): 100%
Percent Control (MYLK4): 94%
Percent Control (RIOK2): 100%
Percent Control (CDK8): 100%
Percent Control (EGFR(L858R)): 59%
Percent Control [2]: 92%
Percent Control (MERTK): 84%
Percent Control (CSNK1A1): 100%
Percent Control (TSSK1B): 88%
Percent Control (IKK-alpha): 100%
Percent Control (NEK3): 80%
Percent Control (DMPK2): 100%
Percent Control [3]: 100%
effect on antibody-dependent NK-cell-mediated cytotoxicity (ADCC) (SK-OV-3 cells): did not affect
Percent Control (p38-beta): 89%
Percent Control (FLT3(D835V)): 11%
Percent Control (MYLK2): 91%
Percent Control (YANK2): 77%
Percent Control (PAK1): 75%
concentration in the tumor [4]: 2370 nM
S Score (1) (468 kinases/mutants): 0.00
Percent Control (ERK2): 91%
Percent Control (CASK): 100%
Percent Control (MYO3B): 92%
Percent Control (MAP3K15): 96%
Percent Control (WEE2): 96%
Percent Control (p38-delta): 80%
percent of control binding at 1 µM (TXK): 82%
Percent Control (AURKC): 100%
Percent Control (PIP5K2C): 85%
Percent Control (CDK2): 85%
Percent Control (PFCDPK1(P.falciparum)): 100%
Percent Control (MARK2): 91%
Percent Control [5]: 57%
Percent Control (GRK1): 84%
Percent Control (PIKFYVE): 78%
Percent Control [6]: 99%
Percent Control (EPHA4): 100%
Percent Control (SLK): 95%
Percent Control (PIK3CA(H1047Y)): 83%
